Test results published in patent US12214092B2, “Systems and methods for treating biological fluids” (Cerus Corporation, priority 2017, dated 2025).

Test system: platelets
Test: Platelet quality, platelets in 100% plasma: 75 μM amotosalen + 340 nm (~6.4 or ~7.2 J/cm^2) or 150 μM + INT-100 (~3.6 J/cm^2, with CAD)
Type: cell-based

Cc1oc2c(C)c3oc(=O)cc(C)c3cc2c1COCCN [S-59, 3-(2-aminoethoxymethyl)-2,5,9-trimethylfuro[3,2-g]chromen-7-one]
Extent of Shape Change (ESC) (340/~6.4, D5): 22.15 | Hypotonic Shock Response (HSR) (340/~6.4, D5): 56.50 | Morphology (Kunicki score) (340/~6.4, D5): 271.50 | P-selectin (CD62P) (340/~6.4, D5): 51.70 | pCO2 (340/~6.4, D5): 35.00 mmHg | pH @ 22° C. (340/~6.4, D5): 7.15 | pH @ 37° C. (340/~6.4, D5): 6.92 | pO2 (340/~6.4, D5): 59.75 mmHg | Extent of Shape Change (ESC) (340/~6.4, D7): 16.45 | Hypotonic Shock Response (HSR) (340/~6.4, D7): 45.98 | Morphology (Kunicki score) (340/~6.4, D7): 259.00 | P-selectin (CD62P) (340/~6.4, D7): 67.65 | pCO2 (340/~6.4, D7): 30.95 mmHg | pH @ 22° C. (340/~6.4, D7): 6.95 | pH @ 37° C. (340/~6.4, D7): 6.72 | pO2 (340/~6.4, D7): 61.80 mmHg | pCO2 (340/~6.4, Post-UVA): 43.60 mmHg | pH @ 22° C. (340/~6.4, Post-UVA): 7.30 | pH @ 37° C. (340/~6.4, Post-UVA): 7.07 | pO2 (340/~6.4, Post-UVA): 42.90 mmHg | Extent of Shape Change (ESC) (340/~6.4, Pre-UVA): 20.60 | Hypotonic Shock Response (HSR) (340/~6.4, Pre-UVA): 45.40 | Morphology (Kunicki score) (340/~6.4, Pre-UVA): 265.50 | P-selectin (CD62P) (340/~6.4, Pre-UVA): 31.95 | pCO2 (340/~6.4, Pre-UVA): 55.20 mmHg | pH @ 22° C. (340/~6.4, Pre-UVA): 7.29 | pH @ 37° C. (340/~6.4, Pre-UVA): 7.06 | pO2 (340/~6.4, Pre-UVA): 37.60 mmHg | Extent of Shape Change (ESC) (340/~7.2, D5): 26.73 | Hypotonic Shock Response (HSR) (340/~7.2, D5): 51.87 | Morphology (Kunicki score) (340/~7.2, D5): 287.67 | P-selectin (CD62P) (340/~7.2, D5): 45.00 | pCO2 (340/~7.2, D5): 37.47 mmHg | pH @ 22° C. (340/~7.2, D5): 7.11 | pH @ 37° C. (340/~7.2, D5): 6.88 | pO2 (340/~7.2, D5): 49.33 mmHg | Extent of Shape Change (ESC) (340/~7.2, D7): 19.47 | Hypotonic Shock Response (HSR) (340/~7.2, D7): 49.47 | Morphology (Kunicki score) (340/~7.2, D7): 254.67 | P-selectin (CD62P) (340/~7.2, D7): 56.93 | pCO2 (340/~7.2, D7): 32.70 mmHg | pH @ 22° C. (340/~7.2, D7): 6.94 | pH @ 37° C. (340/~7.2, D7): 6.72 | pO2 (340/~7.2, D7): 56.07 mmHg | pCO2 (340/~7.2, Post-UVA): 47.23 mmHg | pH @ 22° C. (340/~7.2, Post-UVA): 7.32 | pH @ 37° C. (340/~7.2, Post-UVA): 7.09 | pO2 (340/~7.2, Post-UVA): 32.93 mmHg | Extent of Shape Change (ESC) (340/~7.2, Pre-UVA): 23.50 | Hypotonic Shock Response (HSR) (340/~7.2, Pre-UVA): 49.67 | Morphology (Kunicki score) (340/~7.2, Pre-UVA): 279.33 | P-selectin (CD62P) (340/~7.2, Pre-UVA): 27.77 | pCO2 (340/~7.2, Pre-UVA): 54.43 mmHg | pH @ 22° C. (340/~7.2, Pre-UVA): 7.31 | pH @ 37° C. (340/~7.2, Pre-UVA): 7.08 | pO2 (340/~7.2, Pre-UVA): 31.77 mmHg | Extent of Shape Change (ESC) (INT-100, D5): 25.20 | Hypotonic Shock Response (HSR) (INT-100, D5): 55.10 | Morphology (Kunicki score) (INT-100, D5): 265.67 | P-selectin (CD62P) (INT-100, D5): 39.07 | pCO2 (INT-100, D5): 31.83 mmHg | pH @ 22° C. (INT-100, D5): 7.16 | pH @ 37° C. (INT-100, D5): 6.93 | pO2 (INT-100, D5): 69.77 mmHg | Extent of Shape Change (ESC) (INT-100, D7): 19.82 | Hypotonic Shock Response (HSR) (INT-100, D7): 46.00 | Morphology (Kunicki score) (INT-100, D7): 274.67 | P-selectin (CD62P) (INT-100, D7): 58.77 | pCO2 (INT-100, D7): 28.47 mmHg | pH @ 22° C. (INT-100, D7): 6.96 | pH @ 37° C. (INT-100, D7): 6.74 | pO2 (INT-100, D7): 70.37 mmHg | pCO2 (INT-100, Post-UVA): 54.60 mmHg | pH @ 22° C. (INT-100, Post-UVA): 7.17 | pH @ 37° C. (INT-100, Post-UVA): 6.94 | pO2 (INT-100, Post-UVA): 62.87 mmHg | Extent of Shape Change (ESC) (INT-100, Pre-UVA): 23.50 | Hypotonic Shock Response (HSR) (INT-100, Pre-UVA): 49.67 | Morphology (Kunicki score) (INT-100, Pre-UVA): 279.33 | P-selectin (CD62P) (INT-100, Pre-UVA): 27.77 | pCO2 (INT-100, Pre-UVA): 54.43 mmHg | pH @ 22° C. (INT-100, Pre-UVA): 7.31 | pH @ 37° C. (INT-100, Pre-UVA): 7.08 | pO2 (INT-100, Pre-UVA): 31.77 mmHg
